Entries after “also recorded” stand apart in the source; their conditions may differ.
Experiments:
B16-OVA tumors [1] = assay: B16-OVA tumors in C57BL/6J WT mice depleted of T cells by anti-CD3 antibody, creatine supplementation; assay type: in vivo, mouse; settings: B16-OVA in C57BL/6J WT mice depleted of T cells via i.p. anti-CD3 depletion antibody
Description: (§1) To establish solid tumors, mice were s.c. injected above the right flank with 1×10^6 B16-OVA or 3×10^5 MC38 cells. Before injection, cells in log phase of growth were harvested and suspended in phosphate-buffered saline (PBS), and 50 μl of cell suspension were injected subcutaneously above the flank. Tumor size was periodically measured with a digital Vernier caliper (Thermo Fisher Scientific). For creatine supplementation via i.p. injection, […] monohydrate (cat #C3630, Sigma-Aldrich) was dissolved in sterile PBS and i.p. injected to experimental animals daily at a dose of 10.5 mg per animal per injection. To study the effects of creatine supplementation on suppressing tumor growth, B6 mice were inoculated with B16-OVA tumor cells and monitored for tumor growth, with or without receiving creatine supplementation via i.p. injection or diet. […] To study the T cell-dependence of creatine supplementation induced anti-tumor effects, B6-OVA tumor growth was monitored and compared in B6 mice receiving i.p. injection of an anti-CD3 T cell depleting antibody ([…]; 100 μg/mouse/injection, twice per week) or an isotype control antibody (clone LTF-2, 100 μg/mouse/injection, twice per week), with or without i.p. supplement of creatine.

[2] = humans (Kreider et al., 2017); cited from earlier work
cancer growth = settings: early studies (Kristensen et al., 1999; Miller et al., 1993); cited from earlier work
MC38 colon cancer = MC38 colon cancer model, creatine supplementation and anti-PD-1 treatment; assay type: in vivo, mouse; settings: MC38 (CrT-negative); creatine supplementation alone
Description: To establish solid tumors, mice were s.c. injected above the right flank with 1×10^6 B16-OVA or 3×10^5 MC38 cells. Before injection, cells in log phase of growth were harvested and suspended in phosphate-buffered saline (PBS), and 50 μl of cell suspension were injected subcutaneously above the flank. Tumor size was periodically measured with a digital Vernier caliper (Thermo Fisher Scientific). For creatine supplementation via i.p. injection, […] monohydrate (cat #C3630, Sigma-Aldrich) was dissolved in sterile PBS and i.p. injected to experimental animals daily at a dose of 10.5 mg per animal per injection. To study the combination effects of creatine supplementation and PD-1/PD-L1 blockade treatment, B6 mice were inoculated with MC38 tumor cells and monitored for tumor growth; experimental mice also received i.p. supplement of creatine, as well as i.p. injection of an anti-PD-1 blocking antibody (clone RMP1-14; 300 μg/mouse/injection, twice per week) or an isotype control antibody (clone 2A3; 300 μg/mouse/injection, twice per week), alone or in combination. Tumor-free mice were maintained for three months, then challenged with MC38 tumor cells again and monitored for tumor recurrence over another 6-month period.

skeletal muscle fibers = assay: Histological analysis of skeletal muscle (H&E, muscle-fiber diameter); assay type: in vivo, mouse; settings: mice receiving creatine supplements (i.p. or food); biceps femoris
Description: Skeletal muscle (biceps femoris) harvested from control (Ctrl) and experimental (Creatine ip and Creatine food) mice were fixed in 10% neutral-buffered formalin and embedded in paraffin for sectioning (5-μm thickness), followed by H&E staining using standard procedures (UCLA Translational Pathology Core Laboratory). The sections were imaged using an Olympus BX51 upright microscope equipped with a Macrofire® CCD camera (Optronics®). The muscle-fiber diameter was assessed with the use of an ImageJ software (NIH).

B16-OVA tumors [3] = assay: B16-OVA tumors in immunodeficient NSG mice, creatine supplementation; assay type: in vivo, mouse; settings: i.p. creatine
B16-OVA melanoma = B16-OVA melanoma model in C57BL/6J WT mice, creatine supplementation; assay type: in vivo, mouse; settings: i.p. injection or dietary supplementation, both routes
Description: as §1, with “injection. […]” for “injection.”

## CN(CC(=O)O)C(=N)N [creatine]
B16-OVA tumors [1]
  tumor growth: could not be suppressed
[2]
  safety of long-term supplementation: well-documented safety
Cancer growth
  direct inhibition of cancer growth: could directly inhibit cancer growth
MC38 colon cancer
  tumor suppression: tumor suppression benefits
Skeletal muscle fibers
  skeletal muscle fiber size: enlargement of skeletal muscle fibers
B16-OVA tumors [3]
  tumor growth: could not be suppressed
B16-OVA melanoma
  tumor growth: effectively suppressed tumor growth to a similar extent; also recorded: tumor suppression benefits
